Data: patent publication US8114602B2 (priority 2003, dated 2012)
Where “and” joins values, the source holds several entries; their conditions need not be identical. Equal values may be shown once. Entries after “also recorded” stand apart in the source; their conditions may differ.

Legend:
GM1 [1] = format: binding, bovine; set-up: Ei (effective interaction energy): unit not given here
GM1 [2] = format: binding, bovine; conditions: read-out: effective dissociation constant
[3] = system: membranes free of GM1 and GTIB; format: binding
GTIB [4] = format: binding, bovine
GTIB [5] = format: binding, bovine; conditions: read-out: effective dissociation constant

Cholera Toxin B-subunit [CTB]
Ei (effective interaction energy) (GM1 [1]): 0.56 ± 0.12 | colloidal phase response (condensed to dispersed transition) (GM1 [1]): triggered the transition to a dispersed phase; also recorded: induces the transition | detection signal / binding in selectivity series (GM1 [1]): positive signal; also recorded: detected binding | first peak in the g(r) plot (GM1 [1]): noticeably absent | Kd (GM1 [2]): ~41 nM and ~60 nM | Ei (effective interaction energy) [3]: 2.52 ± 0.09 | detection signal / binding in selectivity series [3]: Negative signals; also recorded: absence of binding | Ei (effective interaction energy) (GTIB [4]): 2.47 ± 0.09 | colloidal phase response (condensed to dispersed transition) (GTIB [4]): without producing any effect; also recorded: no effect

tetanus toxin [TT]
Ei (effective interaction energy) (GM1 [1]): 2.63 ± 0.05 | colloidal phase response (condensed to dispersed transition) (GM1 [1]): no effect | detection signal / binding in selectivity series (GM1 [1]): Negative signals | Kd (GTIB [5]): ~60 nM and ~41 nM | Ei (effective interaction energy) [3]: 2.61 ± 0.05 | detection signal / binding in selectivity series [3]: Negative signals | colloidal phase response (condensed to dispersed transition) (GTIB [4]): triggered formation of a dispersed phase; also recorded: induces a condensed to dispersed phase transition | detection signal / binding in selectivity series (GTIB [4]): positive signal; also recorded: detected binding | first peak in the g(r) plot (GTIB [4]): noticeably absent

α-Bungarotoxin [BT]
Ei (effective interaction energy) (GM1 [1]): 2.84 ± 0.02 | colloidal phase response (condensed to dispersed transition) (GM1 [1]): no effect | Ei (effective interaction energy) [3]: 2.67 ± 0.10 | detection signal / binding in selectivity series [3]: Negative signals | Ei (effective interaction energy) (GTIB [4]): 2.71 ± 0.08 | colloidal phase response (condensed to dispersed transition) (GTIB [4]): no effect
